Columns and labels:
Type in all cases: functional
HCT-116 = assay: Growth inhibition of human HCT-116 cells assessed as cell growth at 0.01 uM incubated for 48 hrs by sulforhodamine B assay relative to control; conditions: read-out: Activity
SF-295 = assay: Growth inhibition of human SF-295 cells assessed as cell growth at 0.01 uM incubated for 48 hrs by sulforhodamine B assay relative to control; conditions: read-out: Activity
NCI/ADR-RES [1] = assay: Growth inhibition of human NCI/ADR-RES cells assessed as cell growth at 0.01 uM incubated for 48 hrs by sulforhodamine B assay relative to control; conditions: read-out: Activity
ACHN = assay: Growth inhibition of human ACHN cells assessed as cell growth at 0.01 uM incubated for 48 hrs by sulforhodamine B assay relative to control; conditions: read-out: Activity
HL-60(TB) = assay: Growth inhibition of human HL-60(TB) cells assessed as cell growth at 0.1 uM incubated for 48 hrs by sulforhodamine B assay relative to control; conditions: read-out: Activity
K562 = assay: Growth inhibition of human K562 cells assessed as cell growth at 0.1 uM incubated for 48 hrs by sulforhodamine B assay relative to control; conditions: read-out: Activity
A549 = assay: Growth inhibition of human A549/ATCC cells assessed as cell growth at 0.1 uM incubated for 48 hrs by sulforhodamine B assay relative to control; conditions: read-out: Activity
HOP-62 = assay: Growth inhibition of human HOP-62 cells assessed as cell growth at 0.1 uM incubated for 48 hrs by sulforhodamine B assay relative to control; conditions: read-out: Activity
NCI-H460 [2] = assay: Growth inhibition of human NCI-H460 cells assessed as cell growth at 0.1 uM incubated for 48 hrs by sulforhodamine B assay relative to control; conditions: read-out: Activity
NCI-H522 = assay: Growth inhibition of human NCI-H522 cells assessed as cell growth at 0.1 uM incubated for 48 hrs by sulforhodamine B assay relative to control; conditions: read-out: Activity
SW-620 = assay: Growth inhibition of human SW-620 cells assessed as cell growth at 0.1 uM incubated for 48 hrs by sulforhodamine B assay relative to control; conditions: read-out: Activity
OVCAR-3 = assay: Growth inhibition of human OVCAR-3 cells assessed as cell growth at 0.1 uM incubated for 48 hrs by sulforhodamine B assay relative to control; conditions: read-out: Activity
A498 [3] = assay: Growth inhibition of human A498 cells assessed as cell growth at 0.1 uM incubated for 48 hrs by sulforhodamine B assay relative to control; conditions: read-out: Activity
CAKI-1 = assay: Growth inhibition of human CAKI-1 cells assessed as cell growth at 0.1 uM incubated for 48 hrs by sulforhodamine B assay relative to control; conditions: read-out: Activity
RXF 393 = assay: Growth inhibition of human RXF 393 cells assessed as cell growth at 0.1 uM incubated for 48 hrs by sulforhodamine B assay relative to control; conditions: read-out: Activity
SN12C = assay: Growth inhibition of human SN12C cells assessed as cell growth at 0.1 uM incubated for 48 hrs by sulforhodamine B assay relative to control; conditions: read-out: Activity
T47D = assay: Growth inhibition of human T47D cells assessed as cell growth at 0.1 uM incubated for 48 hrs by sulforhodamine B assay relative to control; conditions: read-out: Activity
RPMI-8226 [4] = assay: Growth inhibition of human RPMI-8226 cells assessed as cell growth at 1 uM incubated for 48 hrs by sulforhodamine B assay relative to control; conditions: read-out: Activity
SK-MEL-28 = assay: Growth inhibition of human SK-MEL-28 cells assessed as cell growth at 1 uM incubated for 48 hrs by sulforhodamine B assay relative to control; conditions: read-out: Activity
UACC-62 = assay: Growth inhibition of human UACC-62 cells assessed as cell growth at 1 uM incubated for 48 hrs by sulforhodamine B assay relative to control; conditions: read-out: Activity
MDA-MB-468 [5] = assay: Growth inhibition of human MDA-MB-468 cells assessed as cell growth at 1 uM incubated for 48 hrs by sulforhodamine B assay relative to control; conditions: read-out: Activity
NCI-H460 [6] = assay: Growth inhibition of human NCI-H460 cells assessed as cell growth at 100 uM incubated for 48 hrs by sulforhodamine B assay relative to control; conditions: read-out: Activity
HT-29 = assay: Growth inhibition of human HT-29 cells assessed as cell growth at 100 uM incubated for 48 hrs by sulforhodamine B assay relative to control; conditions: read-out: Activity
SF-268 = assay: Growth inhibition of human SF-268 cells assessed as cell growth at 100 uM incubated for 48 hrs by sulforhodamine B assay relative to control; conditions: read-out: Activity
SK-OV-3 = assay: Growth inhibition of human SK-OV-3 cells assessed as cell growth at 100 uM incubated for 48 hrs by sulforhodamine B assay relative to control; conditions: read-out: Activity
786-0 = assay: Growth inhibition of human 786-0 cells assessed as cell growth at 100 uM incubated for 48 hrs by sulforhodamine B assay relative to control; conditions: read-out: Activity
A498 [7] = assay: Growth inhibition of human A498 cells assessed as cell growth at 100 uM incubated for 48 hrs by sulforhodamine B assay relative to control; conditions: read-out: Activity
MOLT-4 = assay: Growth inhibition of human MOLT-4 cells incubated for 48 hrs by sulforhodamine B assay
RPMI-8226 [8] = assay: Growth inhibition of human RPMI-8226 cells incubated for 48 hrs by sulforhodamine B assay
UACC-257 = assay: Growth inhibition of human UACC-257 cells incubated for 48 hrs by sulforhodamine B assay
OVCAR-8 = assay: Growth inhibition of human OVCAR-8 cells incubated for 48 hrs by sulforhodamine B assay
NCI/ADR-RES [9] = assay: Growth inhibition of human NCI/ADR-RES cells incubated for 48 hrs by sulforhodamine B assay
MDA-MB-231 = assay: Growth inhibition of human MDA-MB-231 cells incubated for 48 hrs by sulforhodamine B assay
MDA-MB-468 [10] = assay: Growth inhibition of human MDA-MB-468 cells incubated for 48 hrs by sulforhodamine B assay
[11] = read-out: LC50 (the source's name)
[12] = read-out: pLC50 (the source's name) (converted)

CC(=O)Nc1cc(CCl)cc(NC(=O)c2ccc(C(=O)Nc3cccc(NC(=O)CCCN(C)C)c3)cc2)c1
104%: growth at 0.1 µM (HOP-62) | growth at 0.1 µM (SN12C)
62%: growth at 100 µM (A498 [7])
116%: growth at 1 µM (RPMI-8226 [4])
98%: growth at 0.1 µM (CAKI-1)
74%: growth at 0.01 µM (SF-295)
73%: growth at 0.1 µM (A498 [3])
107%: growth at 0.1 µM (SW-620)
51%: growth at 100 µM (HT-29)
106%: growth at 0.1 µM (NCI-H460 [2])
89%: growth at 0.1 µM (NCI-H522)
93%: growth at 0.1 µM (HL-60(TB))
105%: growth at 0.01 µM (NCI/ADR-RES [1]) | growth at 0.01 µM (ACHN)
108%: growth at 0.1 µM (OVCAR-3)
> 100 µM: GI50 (MOLT-4; read-out: GI50) | CC50 (MOLT-4; [11]) | TGI (MOLT-4; read-out: TGI) | GI50 (MOLT-4; read-out: pGI50 (converted)) | CC50 (MOLT-4; [12]) | TGI (MOLT-4; read-out: pTGI) | GI50 (RPMI-8226 [8]; read-out: GI50) | CC50 (RPMI-8226 [8]; [11]) | TGI (RPMI-8226 [8]; read-out: TGI) | GI50 (RPMI-8226 [8]; read-out: pGI50 (converted)) | CC50 (RPMI-8226 [8]; [12]) | TGI (RPMI-8226 [8]; read-out: pTGI) | GI50 (UACC-257; read-out: GI50) | LC50 (UACC-257; read-out: LC50) | TGI (UACC-257; read-out: TGI) | GI50 (UACC-257; read-out: pGI50 (converted)) | LC50 (UACC-257; read-out: pLC50 (converted)) | TGI (UACC-257; read-out: pTGI) | GI50 (OVCAR-8; read-out: GI50) | CC50 (OVCAR-8; [11]) | TGI (OVCAR-8; read-out: TGI) | GI50 (OVCAR-8; read-out: pGI50 (converted)) | CC50 (OVCAR-8; [12]) | TGI (OVCAR-8; read-out: pTGI) | GI50 (NCI/ADR-RES [9]; read-out: GI50) | CC50 (NCI/ADR-RES [9]; [11]) | TGI (NCI/ADR-RES [9]; read-out: TGI) | GI50 (NCI/ADR-RES [9]; read-out: pGI50 (converted)) | CC50 (NCI/ADR-RES [9]; [12]) | TGI (NCI/ADR-RES [9]; read-out: pTGI) | GI50 (MDA-MB-231; read-out: GI50) | CC50 (MDA-MB-231; [11]) | TGI (MDA-MB-231; read-out: TGI) | GI50 (MDA-MB-231; read-out: pGI50 (converted)) | CC50 (MDA-MB-231; [12]) | TGI (MDA-MB-231; read-out: pTGI) | GI50 (MDA-MB-468 [10]; read-out: GI50) | CC50 (MDA-MB-468 [10]; [11]) | TGI (MDA-MB-468 [10]; read-out: TGI) | GI50 (MDA-MB-468 [10]; read-out: pGI50 (converted)) | CC50 (MDA-MB-468 [10]; [12]) | TGI (MDA-MB-468 [10]; read-out: pTGI)
102%: growth at 1 µM (UACC-62)
103%: growth at 0.1 µM (T47D)
88%: growth at 100 µM (SF-268)
94%: growth at 0.1 µM (RXF 393)
109%: growth at 0.01 µM (HCT-116) | growth at 100 µM (SK-OV-3)
122%: growth at 100 µM (786-0)
86%: growth at 1 µM (MDA-MB-468 [5])
99%: growth at 0.1 µM (K562) | growth at 0.1 µM (A549) | growth at 100 µM (NCI-H460 [6])
96%: growth at 1 µM (SK-MEL-28)

Reference: ChEMBL document CHEMBL4715697, “Synthesis and biological activity of benzamide DNA minor groove binders” (2016)
